Source: US20080188483A1, “Compounds and Compositions as Protein Kinase Inhibitors” (IRM LLC, priority 2006, published 2008)

Target: b-Raf (Homo sapiens, UniProt P15056)
Assay: b-Raf enzymatic assay
Assay type: biochemical
Procedure: Compounds of the invention are tested for their ability to inhibit the activity of b-Raf. The assay is carried out in 384-well MaxiSorp plates (NUNC) with black walls and clear bottom. The substrate, IκBα: is diluted in DPBS (1:750) and 15 μl is added to each well. The plates are incubated at 4° C. overnight and washed 3 times with TBST (25 mM Tris, pH 8.0, 150 mM NaCl and 0.05% Tween-20) using the EMBLA plate washer. Plates are blocked by Superblock (15 μl/well) for 3 hours at room temperature, washed 3 times with TBST and pat-dried. Assay buffer containing 20 μM ATP (10 μl) is added to each well followed by 100 nl or 500 nl of compound. B-Raf is diluted in the assay buffer (1 μl into 25 μl) and 10 μl of diluted b-Raf is added to each well (0.4 μg/well). The plates are incubated at room temperature for 2.5 hours. The kinase reaction is stopped by washing the plates 6 times with TBST. Phosph-IκBα (Ser32/36) antibody is diluted in Superblock (1:10,000) and […] is added to each well. The plates are incubated at 4° C. overnight and washed 6 times with TBST. AP-conjugated goat-anti-mouse IgG is diluted in Superblock (1:1,500) and 15 μl is added to each well. Plates are incubated at room temperature for 1 hour and washed 6 times with TBST. […] Plates are read on Acquest or Analyst GT using a Fluorescence Intensity Program (Excitation 455 nm, Emission 580 nm).

b-Raf, sequence (P15056 whole entry): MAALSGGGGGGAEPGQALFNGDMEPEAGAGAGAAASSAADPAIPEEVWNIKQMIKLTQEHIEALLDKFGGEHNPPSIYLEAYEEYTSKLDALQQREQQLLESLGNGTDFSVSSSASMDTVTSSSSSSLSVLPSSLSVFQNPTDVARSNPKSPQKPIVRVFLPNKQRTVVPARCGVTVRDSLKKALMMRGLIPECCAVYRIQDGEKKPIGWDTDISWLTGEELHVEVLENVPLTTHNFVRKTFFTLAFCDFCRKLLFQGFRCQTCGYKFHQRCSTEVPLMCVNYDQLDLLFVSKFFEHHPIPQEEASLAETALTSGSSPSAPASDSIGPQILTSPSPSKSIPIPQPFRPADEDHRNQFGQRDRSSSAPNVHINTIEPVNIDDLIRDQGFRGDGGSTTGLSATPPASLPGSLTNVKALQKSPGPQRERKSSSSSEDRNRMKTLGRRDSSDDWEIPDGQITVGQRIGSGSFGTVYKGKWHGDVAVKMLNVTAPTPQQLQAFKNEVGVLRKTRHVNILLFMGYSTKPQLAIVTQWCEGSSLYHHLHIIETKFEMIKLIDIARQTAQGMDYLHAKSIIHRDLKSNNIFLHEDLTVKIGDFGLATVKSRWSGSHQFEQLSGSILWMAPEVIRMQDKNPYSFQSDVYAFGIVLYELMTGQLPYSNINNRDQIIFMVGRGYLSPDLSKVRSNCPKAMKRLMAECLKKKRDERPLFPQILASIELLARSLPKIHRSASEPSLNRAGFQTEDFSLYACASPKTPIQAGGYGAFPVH

Cc1cn(-c2cc(C(=O)Nc3ccc(C)c(Nc4nccn4-c4ncnc5[nH]ccc45)c3)cc(C(F)(F)F)c2)cn1 [Example 2, 3-(4-methyl-imidazol-1-yl)-N-{4-methyl-3-[1-(7H-pyrrolo[2,3-d]pyrimidin-4-yl)-1H-imidazol-2-ylamino]-phenyl}-5-trifluoromethyl-benzamide]
IC50: 2 nM
